Read-outs that look alike come from different tables or passages of the source.
Key:
Assay in all cases: Anti-proliferative activity, cell-titre luminescent viability assay
Assay type in all cases: cell-based
CaCo2 = conditions: read-out: IC50 Colorectal CaCo2
Description: (§1) The ability of compounds 3501-3540 and 3542-3545 to inhibit the proliferation of cancer cells representative of neuroblastoma, melanoma, prostate cancer, colorectal cancer, non-small cell lung carcinoma, and triple negative breast cancer was assessed. Briefly, a pre-determined number of cells as calculated from cell growth assays for each of the cell lines employed were seeded into their respective culture medium (using ATCC culture parameters—http://www.atcc.org) and cultured for 24 hours at 37° C. and 5% CO2 in 96-well culture plates. Once attached, each cell line was then exposed to increasing concentrations of each respective analogue (0.03, 0.3, 3 and 30 μM for compounds in Table 1; 0.1, 0.3, 1, 3, 10 and 30 μM for compounds in Table 2), cultured for a further 72 hours and exposed to cell-titre luminescent reagent (100 μL/well) for a further 30 min) to assess for cell viability. Luminescence was captured using an EnVision multilabel reader and the data for each analogue concentration was normalized, as a percentage, to the no treatment control. For compounds 3501, 3503, 3505-08, 3512-18, 3520, 3522-24 and 3531-36, semi-log plots of Percent of Control versus concentration were prepared and IC50 determined using linear regression analysis. For compounds 3502, 3504, 3509-11, 3519, 3521, 3525-30, 3537-40 and 3542-45, cell viability was normalized to control (vehicle alone) and dose-response curves, and half maximal effective concentration (EC50) values were determined using Graph Pad Prism 6 (nonlinear regression sigmoidal dose-response variable slope).

PC3 = conditions: Homo sapiens, read-out: IC50 Prostate PC3
Description: as §1

SK-N-SH = conditions: Homo sapiens, SK-N-SH, read-out: IC50 Neuroblastoma SK-N-SH
Description: as §1

MDA-MB-231 = conditions: Homo sapiens, read-out: IC50 Breast MDA-MB-231
Description: as §1

A549 = conditions: Homo sapiens, read-out: IC50 Lung (NSLC) A549
Description: as §1

SK-Mel-28 = conditions: Homo sapiens, SK-MEL-28, 72 hours, read-out: IC50 Melanoma SK-Mel-28
Description: as §1

DU145 = conditions: Homo sapiens, read-out: IC50 Prostate DU145
Description: as §1

[1] = Homo sapiens, Caco-2, 72 h, 0.1, 0.3, 1, 3, 10 and 30 μM, nonlinear regression sigmoidal dose-response (EC50)
[2] = PC-3, 72 h, 0.1, 0.3, 1, 3, 10 and 30 μM, nonlinear regression sigmoidal dose-response (EC50)
[3] = 72 h, 0.1, 0.3, 1, 3, 10 and 30 μM, nonlinear regression sigmoidal dose-response (EC50)
[4] = MDA-MB-231, 72 h, 0.1, 0.3, 1, 3, 10 and 30 μM, nonlinear regression sigmoidal dose-response (EC50)
[5] = A549, 72 h, 0.1, 0.3, 1, 3, 10 and 30 μM, nonlinear regression sigmoidal dose-response (EC50)
[6] = 0.1, 0.3, 1, 3, 10 and 30 μM, nonlinear regression sigmoidal dose-response (EC50)
[7] = DU-145, 72 h, 0.1, 0.3, 1, 3, 10 and 30 μM, nonlinear regression sigmoidal dose-response (EC50)
[8] = Homo sapiens, Caco-2, 72 h, 0.03, 0.3, 3 and 30 μM, linear regression of semi-log plots
[9] = PC-3, 72 h, 0.03, 0.3, 3 and 30 μM, linear regression of semi-log plots
[10] = 72 h, 0.03, 0.3, 3 and 30 μM, linear regression of semi-log plots
[11] = MDA-MB-231, 72 h, 0.03, 0.3, 3 and 30 μM, linear regression of semi-log plots
[12] = A549, 72 h, 0.03, 0.3, 3 and 30 μM, linear regression of semi-log plots
[13] = 0.03, 0.3, 3 and 30 μM, linear regression of semi-log plots
[14] = DU-145, 72 h, 0.03, 0.3, 3 and 30 μM, linear regression of semi-log plots

SMILES	IC50 (CaCo2; [1]) [µM]	IC50 (PC3; [2]) [µM]	IC50 (SK-N-SH; [3]) [µM]	IC50 (MDA-MB-231; [4]) [µM]	IC50 (A549; [5]) [µM]	IC50 (SK-Mel-28; [6]) [µM]	IC50 (DU145; [7]) [µM]	IC50 (CaCo2; [8]) [µM]	IC50 (PC3; [9]) [µM]	IC50 (SK-N-SH; [10]) [µM]	IC50 (MDA-MB-231; [11]) [µM]	IC50 (A549; [12]) [µM]	IC50 (SK-Mel-28; [13]) [µM]	IC50 (DU145; [14]) [µM]	IC50 (CaCo2; 72 hours, 0.03, 0.3, 3 and 30 μM, linear regression of semi-log plots) [µM]
COc1ccc(CCN2CCN(C(=O)c3ccc(Oc4ccc5c(c4)c(C)c(C)n5CCCN4CCN(C)CC4)cc3)CC2)cc1 [Compound 3526]	5.3	15.6	4.8	13.4	3	4.8	9	–	–	–	–	–	–	–	–
Cc1c(C)n(CCCN2CCN(C)CC2)c2ccc(Oc3ccc(C(=O)N4CCN(CCc5ccc6c(c5)OCO6)CC4)cc3)cc12 [Compound 3527, (4-(2-(benzo[d][1,3]dioxol-5-yl)ethyl)piperazin-1-yl)(4-((2,3-dimethyl-1-(3-(4-methylpiperazin-1-yl)propyl)-1H-indol-5-yl)oxy)phenyl)methanone]	4.1	7.2	3.2	4.8	5	4.1	4.5	–	–	–	–	–	–	–	–
Cc1c(C)n(CCCN2CCN(C)CC2)c2ccc(Oc3ccc(C(=O)N4CCN(CCc5cccc(F)c5)CC4)cc3)cc12 [Compound 3528]	4.6	7.3	4.3	5.9	6.6	3.8	5.2	–	–	–	–	–	–	–	–
COc1cccc(CCN2CCN(C(=O)c3ccc(Oc4ccc5c(c4)c(C)c(C)n5CCCN4CCN(C)CC4)cc3)CC2)c1 [Compound 3529]	4.2	4.8	2	4.5	4.4	2.4	4.2	–	–	–	–	–	–	–	–
Cc1c(C)n(CCCN2CCN(C)CC2)c2ccc(Oc3ccc(C(=O)N4CCN(CCc5ccccc5)CC4)cc3)cc12 [Compound 3530]	4.3	4.8	1.6	2.1	2.4	3.9	4.5	–	–	–	–	–	–	–	–
Cc1c(C)n(CCCN2CCN(C)CC2)c2ccc(Nc3ccc(C(=O)N4CCN(CCc5ccc(F)cc5)CC4)cc3)cc12 [Compound 3531, (4-((2,3-dimethyl-1-(3-(4-methylpiperazin-1-yl)propyl)-1H-indol-5-yl)amino)phenyl)(4-(4-fluorophenethyl)piperazin-1-yl)methanone]	–	–	–	–	–	–	–	4.2	4.6	3.4	3.5	3.9	2.8	3.9	–
COc1ccc(CCN2CCN(C(=O)c3ccc(Nc4ccc5c(c4)c(C)c(C)n5CCCN4CCN(C)CC4)cc3)CC2)cc1 [Compound 3532, (4-((2,3-dimethyl-1-(3-(4-methylpiperazin-1-yl)propyl)-1H-indol-5-yl)amino)phenyl)(4-(4-methoxyphenethyl)piperazin-1-yl)methanone]	–	–	–	–	–	–	–	–	4.2	2.3	1.9	2.2	2.7	4	3.1
Cc1c(C)n(CCCN2CCN(C)CC2)c2ccc(Nc3ccc(C(=O)N4CCN(CCc5ccc6c(c5)OCO6)CC4)cc3)cc12 [Compound 3533, (4-(2-(benzo[d][1,3]dioxol-5-yl)ethyl)piperazin-1-yl)(4-((2,3-dimethyl-1-(3-(4-methylpiperazin-1-yl)propyl)-1H-indol-5-yl)amino)phenyl)methanone]	–	–	–	–	–	–	–	3.9	3.3	3.3	4.2	3.7	4.8	3.7	–

Reference: US20170152226A1, “FUNCTIONALISED AND SUBSTITUTED INDOLES AS ANTI-CANCER AGENTS” (Novogen Ltd., priority 2014, published 2017)
